What was measured:
HepG2 = experiment: Cytotoxicity against human HepG2 cells assessed as reduction in cell viability after 48 hrs by MTT assay; assay type: functional, cell-based; conditions: HepG2, 48 h
LNCaP = experiment: Anticancer activity against human LNCAP cells after 72 to 102 hrs by MTT assay; assay type: functional, cell-based
HeLa = experiment: Cytotoxicity against human HeLa cells assessed as reduction in cell viability after 48 hrs by MTT assay; assay type: functional, cell-based
Vero = experiment: Cytotoxicity against African green monkey Vero cells assessed as reduction in cell viability after 48 hrs by MTT assay; assay type: cell-based; conditions: Chlorocebus sabaeus
KB = experiment: Cytotoxicity against human KB cells assessed as reduction in cell viability after 48 hrs by MTT assay; assay type: functional, cell-based
MDA-MB-435 [1] = experiment: Anticancer activity against human MDA-MB-435 cells; assay type: functional, cell-based
SF-295 [2] = experiment: Anticancer activity against human SF295 cells; assay type: functional, cell-based
HL-60 [3] = experiment: Anticancer activity against human HL60 cells; assay type: functional, cell-based
HCT-8 = experiment: Anticancer activity against human HCT8 cells; assay type: functional, cell-based
PBMC = experiment: Cytotoxicity against human PBMC; assay type: cell-based
HCT-116 [4] = experiment: Cytotoxicity against human HCT116 cells assessed as reduction in cell viability after 48 hrs; assay type: functional, cell-based; conditions: HCT-116, 48 h
HL-60 [5] = experiment: Cytotoxicity against human HL60 cells assessed as reduction in cell viability after 48 hrs; assay type: functional, cell-based; conditions: HL-60, 48 h
SF-295 [6] = experiment: Cytotoxicity against human SF295 cells assessed as reduction in cell viability after 48 hrs; assay type: functional, cell-based; conditions: SF-295, 48 h
OVCAR-8 [7] = experiment: Cytotoxicity against human OVCAR8 cells assessed as reduction in cell viability after 48 hrs; assay type: functional, cell-based; conditions: OVCAR-8, 48 h
PC-3 = experiment: Cytotoxicity against human PC3 cells assessed as reduction in cell viability after 48 hrs; assay type: functional, cell-based; conditions: PC-3, 48 h
MDA-MB-435 [8] = experiment: Cytotoxicity against human MDA-MB-435 cells assessed as reduction in cell viability after 48 hrs; assay type: functional, cell-based; conditions: MDA-MB-435, 48 h
Trypanosoma cruzi [9] = experiment: Anti-parasitic activity against Trypanosoma cruzi; assay type: functional, organism-based
Trypanosoma cruzi [10] = experiment: Trypanocidal activity against Trypanosoma cruzi Y strain bloodstream trypomastigotes isolated from infected Swiss mouse after 24 hrs by Neubauer chamber method; assay type: functional, organism-based
L02 = experiment: Cytotoxicity against human LO2 cells assessed as reduction in cell viability after 48 hrs by MTT assay; assay type: functional, cell-based; conditions: L02, 48 h
Trypanosoma cruzi [11] = experiment: Anti-parasitic activity against trypomastigotes form of Trypanosoma cruzi after 24 hrs; assay type: functional, organism-based
Trypanosoma cruzi [12] = experiment: Trypanocidal activity against Trypanosoma cruzi Y strain bloodstream trypomastigotes after 24 hrs; assay type: functional, organism-based
HL-60 [13] = experiment: Anticancer activity against human HL60 cells by MTT assay; assay type: functional, cell-based
OVCAR-8 [14] = experiment: Anticancer activity against human OVCAR8 cells by MTT assay; assay type: functional, cell-based
HCT-116 [15] = experiment: Anticancer activity against human HCT116 cells by MTT assay; assay type: functional, cell-based
SF-295 [16] = experiment: Anticancer activity against human SF295 cells by MTT assay; assay type: functional, cell-based
HCT-116 [17] = experiment: Anticancer activity against human HCT116 cells; assay type: functional, cell-based
L929 = experiment: Anticancer activity against mouse L929 cells; assay type: functional, cell-based
HL-60 [18] = experiment: Cytotoxicity against human HL60 cells assessed as reduction in cell viability after 22 hrs by MTS assay; assay type: functional, cell-based; conditions: HL-60, 22 h
MCF7 = experiment: Anticancer activity against human MCF7 cells; assay type: functional, cell-based

O=C1C(=O)c2ccccc2C2=C1CCCO2
IC50 (HepG2): 0.9 µM | IC50 (LNCaP): 2.76 µM | IC50 (HeLa): 0.9 µM | IC50 (Vero): 1 µM | IC50 (KB): 3.2 µM

COc1ccc(/N=C2\C(=O)C3=C(OC(C)(C)CC3)c3ccccc32)cc1
IC50 (MDA-MB-435 [1]): 0.01 µM

CC1(C)CC(Nc2ccc(Cl)cc2)C2=C(O1)C(=O)c1ccccc1C2=O (stereo not given)
IC50 (MDA-MB-435 [1]): 0.07 to 0.37 µM | IC50 (SF-295 [2]): 0.07 to 0.37 µM | IC50 (HL-60 [3]): 0.07 to 0.37 µM | IC50 (HCT-8): 0.07 to 0.37 µM | IC50 (PBMC): 0.07 to 0.37 µM

COc1ccc(NC2CC(C)(C)OC3=C2C(=O)c2ccccc2C3=O)cc1 (stereo not given)
IC50 (HL-60 [3]): 0.07 µM

CC1(C)OC2=C(C(=O)C(=O)c3ccccc32)C1Nc1cccc(-c2cn(C[Se]c3ccccc3)nn2)c1 (stereo not given)
IC50 (HCT-116 [4]): < 0.1 µM | IC50 (HL-60 [5]): < 0.1 µM | IC50 (SF-295 [6]): < 0.1 µM | IC50 (OVCAR-8 [7]): < 0.1 µM | IC50 (PC-3): < 0.1 µM | IC50 (MDA-MB-435 [8]): < 0.1 µM

Nc1c(I)ccc2c1C(=O)C=CC2=O
IC50 (Trypanosoma cruzi [9]): 0.6 µM

Cc1cc(I)c2c(c1)C(=O)C=CC2=O
IC50 (Trypanosoma cruzi [9]): 0.5 µM

CCOC(=O)/C=C/c1cccc2c1C(=O)C=CC2=O
IC50 (Trypanosoma cruzi [10]): 63.4 µM

O=C1C(Br)=C(Br)C(=O)c2c(I)cccc21
IC50 (Trypanosoma cruzi [9]): 1.4 µM

O=C1C(=O)c2ccccc2C2=C1C1(C(=O)Nc3ccc(Br)cc31)N1NN=NC1=N2 (stereo not given)
IC50 (L02): 2.9 to 36.3 µM | IC50 (HepG2): 2.9 to 36.3 µM

COc1ccc(Sc2cccc3c2C(=O)C=CC3=O)cc1
IC50 (Trypanosoma cruzi [11]): 7.6 µM

O=C1C(=O)c2ccccc2C2=C1C1(C(=O)Nc3ccc(OC(F)(F)F)cc31)N1NN=NC1=N2 (stereo not given)
IC50 (L02): 2.9 to 36.3 µM | IC50 (HepG2): 2.9 to 36.3 µM

COc1ccc(I)c2c1C(=O)C=C(C)C2=O
IC50 (Trypanosoma cruzi [12]): 7.57 µM

CN1C(=O)C2(C3=C(N=C4N=NNN42)c2ccccc2C(=O)C3=O)c2cccc(F)c21 (stereo not given)
IC50 (L02): 2.9 to 36.3 µM | IC50 (HepG2): 2.9 to 36.3 µM

O=C1C=CC(=O)c2c(Sc3ccccc3)cccc21
IC50 (Trypanosoma cruzi [11]): 12.4 µM

CC1(C)O[C@@H]2O[C@@H](COC3C4=C(OC3(C)C)c3ccccc3C(=O)C4=O)[C@H]3OC(C)(C)O[C@H]3[C@@H]2O1 (stereo not given in full)
IC50 (HL-60 [13]): 0.23 µM | IC50 (OVCAR-8 [14]): 0.7 µM | IC50 (HCT-116 [15]): 0.35 µM | IC50 (SF-295 [16]): 0.23 µM

O=C1C(=O)c2ccccc2C2=C1C1(C(=O)Nc3ccccc31)N1NN=NC1=N2 (stereo not given)
IC50 (L02): 2.9 to 36.3 µM | IC50 (HepG2): 2.9 to 36.3 µM

O=C1C(=O)c2ccccc2C2=C1C1(C(=O)Nc3ccc(F)cc31)N1NN=NC1=N2 (stereo not given)
IC50 (L02): 2.9 to 36.3 µM | IC50 (HepG2): 2.9 to 36.3 µM

CC1(C)OC2=C(C(=O)C(=O)c3ccccc32)[C@H](n2cc(C[Se]c3ccc(F)cc3)nn2)[C@H]1Br
IC50 (HL-60 [3]): 0.59 µM | IC50 (HCT-116 [17]): 0.37 µM | IC50 (L929): 0.36 µM

O=C1C(=O)c2ccccc2C2=C1C1(C(=O)Nc3c(Br)cccc31)N1NN=NC1=N2 (stereo not given)
IC50 (L02): 2.9 to 36.3 µM | IC50 (HepG2): 2.9 to 36.3 µM

O=C1C=CC(=O)c2c(Sc3ccc(Br)cc3)cccc21
IC50 (Trypanosoma cruzi [11]): 6.6 µM

O=C1C2=C(S[C@@H]3OC[C@@H](O)[C@H](O)[C@H]3O2)C(=O)c2ccccc21
IC50 (HL-60 [18]): 1 µM

Cc1ccc2c(c1)C1(C(=O)N2)C2=C(N=C3N=NNN31)c1ccccc1C(=O)C2=O (stereo not given)
IC50 (L02): 2.9 to 36.3 µM | IC50 (HepG2): 2.9 to 36.3 µM

CC(=O)OCC1C2=C(OC1(C)C)c1ccccc1C(=O)C2=O (stereo not given)
IC50 (MCF7): 0.6 µM

O=C1C=CC(=O)c2c(SCc3ccccc3)cccc21
IC50 (Trypanosoma cruzi [11]): 14.3 µM

— ChEMBL document CHEMBL4406812, “Synthesis of quinones with highlighted biological applications: A critical update on the strategies towards bioactive compounds with emphasis on lapachones” (Eur J Med Chem, 2019)
